Data from patent US12384771B2, “Pleuromutilin derivative containing thiazole-pyridine benzyl quaternary ammonium salt side chain and preparation method and use thereof” (SHAANXI UNIVERSITY OF SCIENCE AND TECHNOLOGY, priority 2022, dated 2025).
Converted amounts (≈) assume the structure as drawn.

Columns and labels:
Type in all cases: cell-based
[1] = system: Mycoplasma hyopneumoniae standard strain J strain (Mhp-J; NCTC 10110); test: Anti-mycoplasma activity assay, MIC; details: Mesomycoplasma hyopneumoniae, NCTC10110
Experimental: (§1) The minimum inhibitory concentration of the pleuromutilin derivative containing thiazole-pyridine benzyl quaternary ammonium salt side chain against different mycoplasmas was tested with tiamulin as (purchased from Shanghai Yuanye Bio-Technology Co., Ltd) a positive control using a microbroth dilution method, and the antibacterial effect of the compound against different mycoplasmas was evaluated.
(§2) Experimental strains include Mycoplasma hyopneumoniae standard strain J strain (Mhp-J; NCTC 10110), Mycoplasma hyopneumoniae clinical isolate LH strain (Mhp-LH), Mycoplasma hyorhini standard strain BTS-7 strain (Mhr-BTS-7; NCTC 10130), Mycoplasma gallisepticum R strain (MG-R) and Mycoplasma synoviae WVU1853 strain (MS-WVU1853; NCTC 10124) (purchased from National Collection of Type Cultures, United Kingdom).
(§3) The specific operation steps are as follows: • (1) preparation of KM2 medium: 38.9 g of KM2 medium (purchased from Guangdong Huankai Microbial Sci. & Tech. Co., Ltd.) was weighed, added to 800 mL of distilled water, boiled and dissolved, and autoclaved at 115° C. for 20 min for later use. • (2) preparation of bacterial liquid stock: 0.5 mL of each of Mycoplasma hyopneumoniae (Mhp), Mycoplasma hyorhina (Mhr), Mycoplasma gallisepticum (MG) and Mycoplasma synoviae (MS) was taken and transferred to 4.5 mL of KM2 liquid medium, and when the colour of the medium turned yellow, each of the bacteria was sub-packaged at 0.5 mL per tube, and stored as the bacterial liquid at −70° C. • (3) determination of bacterial liquid titre (colour change unit, CCU): 96-well plate method was used to measure the bacterial liquid titre. The preserved bacterial liquid stock was taken from −70° C., melt and equilibrated to room temperature. 0.18 mL of KM2 medium was added to each well of the middle 4 rows of the 96-well plate (that is, 4 parallels), 0.02 mL of the bacterial liquid stock was taken and added to the wells of the first column, respectively, and subjected to 10-fold dilution until 10^−11. A negative control containing only KM2 medium was set (column 12). The plate was sealed and put into an incubator at 37° C., and the results were observed day by day. The highest dilution at which the colour of the medium can change was the CCU/mL of the strain. • (4) determination of MIC: the minimum inhibitory concentration of the compound against mycoplasmas was determined by a microbroth dilution method. Each drug to be tested was prepared as a stock solution with a concentration of 2560 μg/mL, and each drug stock solution was 2-fold diluted with KM2 liquid medium, and the test concentration range was 0.015-128 μg/mL (large concentration gradient) and 0.000004-0.06 μg/mL (small concentration gradient). An appropriate amount of seed bacterial liquid was taken and diluted to 10^4 CCU/mL serially according to its titre. Drugs of various dilutions were added sequentially to the 96-well plate, and then an equal amount of diluted bacterial liquid was added. 200 μL of diluted mycoplasma liquid was set as a positive control, 200 μL of KM2 liquid culture medium was set as a negative control, and a solvent control group (10 μL of drug solvent+190 μL of mycoplasma liquid) was also set. Three parallels were set for each experiment. After all the culture plates were sealed, they were allowed to culture at 37° C. and observed daily, and the final MIC values were recorded. (See FIG. 22 for the MIC determination results of the representative compound 7 against 5 mycoplasma strains)

[2] = system: Mycoplasma gallisepticum R strain (MG-R); test: Anti-mycoplasma activity assay, MIC; details: Mycoplasmoides gallisepticum
Experimental: as §1, §2, §3

[3] = system: Mycoplasma hyopneumoniae clinical isolate LH strain (Mhp-LH); test: Anti-mycoplasma activity assay, MIC; details: Mesomycoplasma hyopneumoniae
Experimental: as §1, §2, §3

[4] = system: Mycoplasma hyorhini standard strain BTS-7 strain (Mhr-BTS-7; NCTC 10130); test: Anti-mycoplasma activity assay, MIC; details: NCTC10130
Experimental: as §1, §2, §3

[5] = system: Mycoplasma synoviae WVU1853 strain (MS-WVU1853; NCTC 10124); test: Anti-mycoplasma activity assay, MIC; details: Mycoplasmopsis synoviae, NCTC10124
Experimental: as §1, §2, §3

[6] = system: Escherichia coli CMCC 44103; test: MIC, microbroth dilution, standard strains; details: CMCC44103, CMCC 44103, read-out: Minimum inhibitory concentration
Experimental: (§4) The minimum inhibitory concentration (MIC) of the pleuromutilin derivative containing thiazole-pyridine benzyl quaternary ammonium salt side chain was tested with moxifloxacin as a positive control (purchased from Shanghai Macklin Biochemical Technology Co., Ltd.) using a microbroth dilution method.
(§5) Standard strains include gram-positive bacteria: Staphylococcus epidermidis ATCC 12228, Staphylococcus aureus ATCC 29213, ATCC 25923 and methicillin-resistant Staphylococcus aureus ATCC 33591; gram-negative bacteria: Salmonella ATCC 14028, Acinetobacter baumannii ATCC 19606, Escherichia coli ATCC 25922 and CMCC 44103, all the strains were purchased from the American Type Culture Collection.

[7] = system: methicillin-resistant Staphylococcus aureus ATCC 33591; test: MIC, microbroth dilution, standard strains; details: ATCC33591, ATCC 33591, read-out: Minimum inhibitory concentration
Experimental: as §4, §5

[8] = system: Staphylococcus epidermidis ATCC 12228; test: MIC, microbroth dilution, standard strains; details: ATCC12228, ATCC 12228, read-out: Minimum inhibitory concentration
Experimental: as §4, §5

[9] = system: Escherichia coli ATCC 25922; test: MIC, microbroth dilution, standard strains; details: ATCC25922, ATCC 25922, read-out: Minimum inhibitory concentration
Experimental: as §4, §5

[10] = system: Acinetobacter baumannii ATCC 19606; test: MIC, microbroth dilution, standard strains; details: ATCC19606, ATCC 19606, read-out: Minimum inhibitory concentration
Experimental: as §4, §5

[11] = system: Staphylococcus aureus ATCC 29213; test: MIC, microbroth dilution, standard strains; details: ATCC29213, ATCC 29213, read-out: Minimum inhibitory concentration
Experimental: as §4, §5

Salmonella ATCC 14028 = test: MIC, microbroth dilution, standard strains; details: ATCC14028, ATCC 14028, read-out: Minimum inhibitory concentration
Experimental: as §4, §5

[12] = system: Staphylococcus aureus ATCC 25923; test: MIC, microbroth dilution, standard strains; details: ATCC25923, ATCC 25923, read-out: Minimum inhibitory concentration
Experimental: as §4, §5

MIC [1]: 0.03 µg/mL (≈ 0.0608 µM)
MIC [2]: 0.125 µg/mL (≈ 0.253 µM)
MIC [3]: 0.015 µg/mL (≈ 0.0304 µM)
MIC [4]: 0.03 µg/mL (≈ 0.0608 µM)
MIC [5]: 2 µg/mL (≈ 4.05 µM)
MIC [6]: 64 µg/mL (≈ 130 µM)
MIC [7]: 128 µg/mL (≈ 259 µM)
MIC [8]: 16 µg/mL (≈ 32.4 µM)
MIC [9]: 128 µg/mL (≈ 259 µM)
MIC [10]: 64 µg/mL (≈ 130 µM)
MIC [11]: > 128 µg/mL
MIC (Salmonella ATCC 14028): 128 µg/mL (≈ 259 µM)
MIC [12]: 64 µg/mL (≈ 130 µM)
SMILES: C=C[C@]1(C)C[C@@H](OC(=O)CSCCN(CC)CC)[C@]2(C)[C@H](C)CC[C@]3(CCC(=O)[C@H]32)[C@@H](C)[C@@H]1O [Tiamulin, tiamulin, reference compound]
